For 32 molecules, IC50 results are on record in patent US12275745B2, “Therapeutic compounds and methods of use” (Genentech, Inc., priority 2021, dated 2025).

The target in one assay is TEAD4 (Homo sapiens, UniProt Q15561). As to the kind of experiment: TR-FRET (Lipid HTRF) TEAD lipid pocket probe displacement assay, TEAD4. The format is binding. Particulars: His-tagged TEAD4, biotinylated lipid pocket probe, 4 hours. A general note: TR-FRET usually uses a lanthanide donor and a delayed reading to cut background.
The target in the next assay is TEAD2 (Homo sapiens, UniProt Q15562). Nature of the assay: biochemical.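 Also: TR-FRET competition assay with His-tagged TEAD protein and a biotinylated lipid pocket probe, where probe displacement by compound lowers the signal.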
The target in a further assay is TEAD1 (Homo sapiens, UniProt P28347). As to the kind of experiment: TR-FRET (Lipid HTRF) TEAD lipid pocket probe displacement assay, TEAD1. The format is binding. Particulars: His-tagged TEAD1, biotinylated lipid pocket probe, 4 hours.
The target in another assay is TEAD3 (Homo sapiens, UniProt Q99594). As to the kind of experiment: TR-FRET (Lipid HTRF) TEAD lipid pocket probe displacement assay, TEAD3. The format is binding. Particulars: His-tagged TEAD3, biotinylated lipid pocket probe, 4 hours.

What is called IC50 is the concentration that gives 50% inhibition. A high value points to weaker potency.

Sequence of TEAD1 (P28347 whole entry, species assumed): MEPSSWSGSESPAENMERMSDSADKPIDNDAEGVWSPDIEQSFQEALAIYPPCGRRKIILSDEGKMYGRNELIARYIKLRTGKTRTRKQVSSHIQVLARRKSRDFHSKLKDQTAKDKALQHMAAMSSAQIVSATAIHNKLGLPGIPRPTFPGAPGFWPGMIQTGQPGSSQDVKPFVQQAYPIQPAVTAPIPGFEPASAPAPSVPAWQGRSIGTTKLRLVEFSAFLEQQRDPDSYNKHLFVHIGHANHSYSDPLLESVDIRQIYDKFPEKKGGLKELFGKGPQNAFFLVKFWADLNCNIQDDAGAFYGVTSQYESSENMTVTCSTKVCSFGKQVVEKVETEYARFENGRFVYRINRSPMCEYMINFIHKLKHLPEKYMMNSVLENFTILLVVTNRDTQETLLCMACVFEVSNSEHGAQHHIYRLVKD
Sequence of TEAD3 (Q99594 whole entry, species assumed): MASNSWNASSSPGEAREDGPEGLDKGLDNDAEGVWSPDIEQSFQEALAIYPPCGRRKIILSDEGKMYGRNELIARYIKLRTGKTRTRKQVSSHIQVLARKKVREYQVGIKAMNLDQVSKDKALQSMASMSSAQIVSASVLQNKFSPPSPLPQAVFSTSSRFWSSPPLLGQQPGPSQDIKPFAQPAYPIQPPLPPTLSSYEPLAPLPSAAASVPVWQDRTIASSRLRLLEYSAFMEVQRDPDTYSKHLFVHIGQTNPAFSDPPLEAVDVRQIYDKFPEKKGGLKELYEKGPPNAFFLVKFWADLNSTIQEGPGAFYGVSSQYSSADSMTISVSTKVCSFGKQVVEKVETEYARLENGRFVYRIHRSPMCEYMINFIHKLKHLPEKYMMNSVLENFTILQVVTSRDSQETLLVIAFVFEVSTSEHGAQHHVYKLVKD
Sequence of TEAD4 (Q15561 whole entry, species assumed): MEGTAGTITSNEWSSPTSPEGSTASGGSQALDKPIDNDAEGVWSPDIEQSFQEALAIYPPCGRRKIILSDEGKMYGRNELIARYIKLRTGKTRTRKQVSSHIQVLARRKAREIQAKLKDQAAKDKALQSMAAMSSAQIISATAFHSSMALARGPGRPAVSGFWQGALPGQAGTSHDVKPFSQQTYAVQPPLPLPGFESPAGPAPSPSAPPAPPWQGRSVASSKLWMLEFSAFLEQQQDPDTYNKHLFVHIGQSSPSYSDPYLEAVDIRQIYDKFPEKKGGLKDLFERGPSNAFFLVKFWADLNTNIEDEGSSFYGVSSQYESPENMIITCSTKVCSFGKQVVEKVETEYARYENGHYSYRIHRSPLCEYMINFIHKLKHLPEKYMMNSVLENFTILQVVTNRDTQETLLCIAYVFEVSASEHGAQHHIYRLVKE
Sequence of TEAD2 (Q15562 whole entry, species assumed): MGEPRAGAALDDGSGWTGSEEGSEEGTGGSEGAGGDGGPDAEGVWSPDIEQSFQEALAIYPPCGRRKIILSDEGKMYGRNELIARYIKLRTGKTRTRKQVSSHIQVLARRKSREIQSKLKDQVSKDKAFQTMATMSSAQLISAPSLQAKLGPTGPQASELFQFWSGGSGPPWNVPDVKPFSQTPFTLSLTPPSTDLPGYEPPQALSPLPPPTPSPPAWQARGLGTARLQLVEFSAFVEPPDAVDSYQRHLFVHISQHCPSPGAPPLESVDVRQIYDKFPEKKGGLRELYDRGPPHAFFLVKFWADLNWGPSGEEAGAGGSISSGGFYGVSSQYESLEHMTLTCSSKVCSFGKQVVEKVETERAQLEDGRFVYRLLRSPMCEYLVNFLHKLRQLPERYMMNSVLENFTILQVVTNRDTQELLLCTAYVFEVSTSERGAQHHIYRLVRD
Experimental for TEAD1: (§1) His-tagged TEAD proteins are pre-incubated with TEAD project compounds for 30 minutes or 4 hours at room temperature. Biotinylated lipid pocket probes are then added to the TEAD/Compound mixture and incubated for 60 minutes at room temperature. The lipid pocket probe competes with the test compound for the TEAD lipid pocket until equilibrium is reached. After 60 minutes, Europium labelled anti-His (Perkin Elmer #AD0110) and XL665 labelled streptavidin (CIS Bio 610SAXAC) are added to the TEAD/test compound/lipid pocket mixture and incubated for 30 minutes or 4 hours. TR-FRET values are then measured using an EnVision multi-label plate reader (Perkin Elmer Cat #2104-001 0A.) If the lipid pocket probe binds to TEAD as expected, a TR-FRET signal results from the proximity of anti-His Eu and XL665. If a TEAD lipid pocket binder such as binds and displaces the lipid pocket probe, the disruption of the TEAD:probe interaction results in a decrease in TR-FRET signal. The potency of compounds as TEAD lipid pocket binders is determined by IC50 value generated using a non-linear 4 parameter curve fit.
Experimental for TEAD2: as §1
Experimental for TEAD3: as §1

As for `C=CC(=O)NCc1nc(-c2ccc(OC(F)(F)F)cc2)nc2c1ncn2C` [Compound 133, N-((9-Methyl-2-(4-(trifluoromethoxy)phenyl)-9H-purin-6-yl)methyl)acrylamide], the concentration for half-maximal inhibition (IC50) on TEAD4 turned out to be 0.028 µM; against TEAD2, 0.36 µM; at TEAD1 it was 0.052 µM; at TEAD3, 0.42 µM.

With `C=CC(=O)NCc1cc(-c2ccc(C(F)(F)F)cc2)c2ncoc2c1[C@H](O)CO` (single isomer, unassigned) [Compound 109], the IC50 amounted to 0.17 µM on TEAD4, 0.058 µM on TEAD2, 0.15 µM on TEAD1 and 0.071 µM at TEAD3.

In the case of `C=C1CCN(Cc2nc(-c3ccc(OC(F)(F)F)cc3)c3ncn(C)c3n2)C1=O` [Compound 129, 1-((9-Methyl-6-(4-(trifluoromethoxy)phenyl)-9H-purin-2-yl)methyl)-3-methylenepyrrolidin-2-one], the IC50 on TEAD4 came to 0.0245 µM; on TEAD2, 1.1 µM; on TEAD1 it was 0.6 µM; on TEAD3 it was 1.35 µM.

As to `C=CC(=O)NCc1nc(-c2ccc(OC(F)(F)F)cc2)c2ncsc2n1` [Compound 21, N-[[7-[4-(trifluoromethoxy)phenyl]thiazolo[5,4-d]pyrimidin-5-yl]methyl]prop-2-enamide], the IC50 on TEAD4 is 0.0119 µM; at TEAD2, 0.19 µM; at TEAD3, 0.0727 µM.

Turning to `C=CC(=O)NCc1cc(-c2ccc(OC(F)(F)F)cc2)c2ncn(C)c2c1[C@H](O)CO` (single isomer, unassigned) [Compound 30], the IC50 on TEAD4 was 0.053 µM.

In the case of `[2H]C([2H])=C([2H])C(=O)NCc1nc(-c2ccc(OC(F)(F)F)cc2)c2ncsc2n1` [Compound 101, N-((7-(4-(Trifluoromethoxy)phenyl)thiazolo[5,4-d]pyrimidin-5-yl)methyl)acrylamide-2,3,3-d3], the results for the half-maximal inhibitory concentration (IC50) on TEAD4, on TEAD2 and on TEAD3 were 0.0151 µM, 0.275 µM and 0.216 µM, respectively.

`Cn1cnc2c(-c3ccc(OC(F)(F)F)cc3)nc(C3CN(C(=O)C45CC4C5)C3)nc21` (stereo not drawn) [Compound 119, Bicyclo[1.1.0]butan-1-yl(3-(9-methyl-6-(4-(trifluoromethoxy)phenyl)-9H-purin-2-yl)azetidin-1-yl)methanone]: the values for the 50% inhibitory concentration (IC50) on TEAD4 and against TEAD2 were 0.16 µM and 1.3 µM, respectively.

On to `C=CC(=O)NCc1cc(-c2ccc(OC(F)(F)F)cc2)c2ncn(C)c2c1C#C[C@H](O)CO` [Compound 74, (S)—N-((7-(3,4-dihydroxybut-1-yn-1-yl)-1-methyl-4-(4-(trifluoromethoxy)phenyl)-1H-benzo[d]imidazol-6-yl)methyl)acrylamide], for which the IC50 at TEAD2 stood at 0.017 µM; on TEAD1, 0.016 µM; at TEAD3 it was 0.34 µM.

In the case of `C/C=C(\C)C(=O)N1CC(c2nc(-c3ccc(OC(F)(F)F)cc3)c3ncn(C)c3n2)C1` [Compound 120, (E)-2-Methyl-1-(3-(9-methyl-6-(4-(trifluoromethoxy)phenyl)-9H-purin-2-yl)azetidin-1-yl)but-2-en-1-one], the figures for the IC50 at TEAD4 and on TEAD2 were 0.22 µM and 0.84 µM, respectively.

On TEAD4, `C=CC(=O)NCc1cc(-c2ccc(OC(F)(F)F)cc2)c2ncn(C)c2c1[C@@H](O)CO` (single isomer, unassigned) [Compound 31] gave an IC50 of 0.055 µM.

On to `C=CC(=O)N1CC(c2nc(-c3ccc(OC(F)(F)F)cc3)c3ncn(C)c3n2)C1` [Compound 62, 1-[3-[9-methyl-6-[4-(trifluoromethoxy)phenyl]purin-2-yl]azetidin-1-yl]prop-2-en-1-one], for which the IC50 at TEAD4 is 0.002 µM; on TEAD2 it was 0.0031 µM.

As to `O=C(CCl)NCc1nc(-c2ccc(OC(F)(F)F)cc2)c2ncsc2n1` [Compound 15, 2-chloro-N-[[7-[4-(trifluoromethoxy)phenyl]thiazolo[5,4-d]pyrimidin-5-yl]methyl]acetamide], the IC50 was found to be 0.005 µM on TEAD4, 0.3 µM at TEAD2 and 0.07 µM at TEAD3.

Consider `C=CC(=O)N1CC[C@@H](c2nc(-c3ccc(OC(F)(F)F)cc3)c3ncn(C)c3n2)C1` (single isomer, unassigned) [Compound 122], for which the results for the IC50 on TEAD2, at TEAD1 and on TEAD3 were 0.066 µM, 0.093 µM and 0.58 µM, respectively.

As for `Cn1cnc2c(-c3ccc(OC(F)(F)F)cc3)nc(C3CN(C(=O)C4=CCC4)C3)nc21` [Compound 115, Cyclobut-1-en-1-yl(3-(9-methyl-6-(4-(trifluoromethoxy)phenyl)-9H-purin-2-yl)azetidin-1-yl)methanone], the figures for the IC50 on TEAD4, against TEAD2 and on TEAD3 were 0.00225 µM, 0.00485 µM and 0.009 µM, respectively.

`C=CC(=O)N[C@H](C)c1cc(-c2ccc(OC(F)(F)F)cc2)c2c(c1CO)CCO2` (single isomer, unassigned) [Compound 17] yielded an IC50 on TEAD4 of 5.7 µM.

For `C=CS(=O)(=O)NCc1cc(-c2ccc(OC(F)(F)F)cc2)c2c(c1CO)CCO2` [Compound 19, N-((4-(Hydroxymethyl)-7-(4-(trifluoromethoxy)phenyl)-2,3-dihydrobenzofuran-5-yl)methyl)ethenesulfonamide], the IC50 at TEAD1 was 0.004 µM; at TEAD3 it was 0.008 µM.

On to `C=CC(=O)NCc1cc(-c2ccc(OC(F)(F)F)cc2)c2ncn(C)c2c1C#N` [Compound 27, N-[[4-cyano-3-methyl-7-[4-(trifluoromethoxy)phenyl]benzimidazol-5-yl]methyl]prop-2-enamide], for which the IC50 at TEAD4 turned out to be 0.0067 µM; at TEAD2, 0.015 µM; at TEAD3, 0.0405 µM.

Regarding `O=C(CCl)NCc1cc(-c2ccc(OC(F)(F)F)cc2)c2c(c1CO)CCO2` [Compound 25, 2-Chloro-N-((4-(hydroxymethyl)-7-(4-(trifluoromethoxy)phenyl)-2,3-dihydrobenzofuran-5-yl)methyl)acetamide], the figures for the 50% inhibitory concentration (IC50) at TEAD4, on TEAD2 and on TEAD1 were 0.0037 µM, 0.0039 µM and 0.0044 µM, respectively.

Take `C=CC(=O)NCc1cc(-c2ccc(OC(F)(F)F)cc2)c2nccnc2c1[C@@H](O)CO` [Compound 28, N-[[5-[(1R)-1,2-dihydroxyethyl]-8-[4-(trifluoromethoxy)phenyl]quinoxalin-6-yl]methyl]prop-2-enamide]: the results for the IC50 on TEAD2 and on TEAD3 were 0.0153 µM and 0.39 µM, respectively.

Consider `C=C(F)C(=O)N1CC(c2nc(-c3ccc(OC(F)(F)F)cc3)c3ncn(C)c3n2)C1` [Compound 118, 2-Fluoro-1-(3-(9-methyl-6-(4-(trifluoromethoxy)phenyl)-9H-purin-2-yl)azetidin-1-yl)prop-2-en-1-one], for which the IC50 on TEAD4 worked out at 0.0067 µM; against TEAD2, 0.072 µM; at TEAD1 it was 0.0095 µM.

For the molecule `C=CC(=O)NCc1cc(-c2ccc(OC(F)(F)F)cc2)c2ncn(C)c2c1C(N)=O` [Compound 76, 3-methyl-5-[(prop-2-enoylamino)methyl]-7-[4-(trifluoromethoxy)phenyl]benzimidazole-4-carboxamide], the IC50 is 0.26 µM at TEAD4, 0.23 µM at TEAD2 and 1.3 µM on TEAD3.

`C/C=C/S(=O)(=O)N1CC(c2nc(-c3ccc(OC(F)(F)F)cc3)c3ncn(C)c3n2)C1` [Compound 116, (E)-9-Methyl-2-(1-(prop-1-en-1-ylsulfonyl)azetidin-3-yl)-6-(4-(trifluoromethoxy)phenyl)-9H-purine]: the IC50 against TEAD2 was determined as 0.0087 µM; at TEAD1 it was 0.0053 µM.

Turning to `C=CC(=O)NCc1cc(-c2ccc(OC(F)(F)F)cc2)c2nccnc2c1[C@H](O)CO` (single isomer, unassigned) [Compound 79], the IC50 on TEAD2 was determined as 0.04 µM; at TEAD3, 1.9 µM.

Turning to `C=CC(=O)NCc1cc(-c2ccc(OC(F)(F)F)cc2)c2c(c1CO)CCO2` [Compound 12, N-((4-(Hydroxymethyl)-7-(4-(trifluoromethoxy)phenyl)-2,3-dihydrobenzofuran-5-yl)methyl)acrylamide], the IC50 on TEAD4 came to 0.0152 µM; at TEAD2 it was 0.0183 µM.

Consider `C=CC(=O)NCc1nc(-c2ccc(OC(F)(F)F)cc2)c2ncn(C)c2c1[C@@H](O)CO` (single isomer, unassigned) [Compound 71], for which the IC50 at TEAD4 came out at 0.12 µM.

In the case of `C=CC(=O)N1CC[C@H](c2nc(-c3ccc(OC(F)(F)F)cc3)c3ncn(C)c3n2)C1` (single isomer, unassigned) [Compound 123], the IC50 on TEAD2 stood at 0.0078 µM; on TEAD1 it was 0.017 µM; on TEAD3, 0.08 µM.

Turning to `C=CC(=O)NCc1cc(-c2ccc(OC(F)(F)F)cc2)c2ncn(C)c2c1C#C[C@@H](O)CO` [Compound 75, (R)-N-((7-(3,4-dihydroxybut-1-yn-1-yl)-1-methyl-4-(4-(trifluoromethoxy)phenyl)-1H-benzo[d]imidazol-6-yl)methyl)acrylamide], the IC50 against TEAD2 was determined as 0.013 µM; at TEAD1 it was 0.009 µM; at TEAD3, 0.16 µM.

As to `C=CC(=O)NCc1cc(-c2ccc(OC(F)(F)F)cc2)c2ncoc2c1[C@H]1CNC(=O)O1` (single isomer, unassigned) [Compound 111], the IC50 at TEAD4 worked out at 0.29 µM; against TEAD2, 0.07 µM; on TEAD1 it was 0.16 µM.

In the case of `C=CC(=O)NCc1cc(-c2ccc(OC(F)(F)F)cc2)c2ncoc2c1[C@@H]1CNC(=O)O1` (single isomer, unassigned) [Compound 112], the IC50 came out at 0.52 µM on TEAD4, 0.36 µM against TEAD2 and 2.4 µM on TEAD1.

As to `[2H]C([2H])=C([2H])C(=O)NCc1cc(-c2ccc(OC(F)(F)F)cc2)c2c(c1CO)CCO2` [Compound 20, 2,3,3-Trideuterio-N-((4-(hydroxymethyl)-7-(4-(trifluoromethoxy)phenyl)-2,3-dihydrobenzofuran-5-yl)methyl]prop-2-enamide], the IC50 amounted to 0.0175 µM at TEAD4 and 0.0235 µM at TEAD2.

As to `C=CC(=O)N[C@@H](C)c1cc(-c2ccc(OC(F)(F)F)cc2)c2c(c1CO)CCO2` (single isomer, unassigned) [Compound 18], at TEAD4, the IC50 is 0.8 µM.

On TEAD4, `C=CC(=O)NCc1nc(-c2ccc(OC(F)(F)F)cc2)c2ncn(C)c2c1[C@H](O)CO` (single isomer, unassigned) [Compound 70] registered an IC50 of 0.26 µM.
